Laboratory results from patent US20230364057A1, “BACTERIAL DNA GYRASE INHIBITORS AND METHODS OF USE THEREOF” (THE FLORIDA INTERNATIONAL UNIVERSITY BOARD OF TRUSTEES, priority 2022, published 2023).
Converted amounts (≈) assume the structure as drawn. “And” between values parts separate entries of the source, which are not always exact repeats. Equal entries are not always repeated. “Also recorded” adds a separate entry of the source. Where two headings read alike, the source gives them in different places.

Columns and labels:
[1] = target: T1, E. coli DNA gyrase (Escherichia coli (strain K12), UniProt P0AES4+P0AES6); test: SDFQ-based DNA gyrase inhibition assay; format: biochemical
Experimental: 100 ng of DNA gyrase was used to supercoil the rx pAB1_FL905 in the presence of different concentrations of a gyrase inhibitor. […] The IC50 values were estimated by nonlinear fitting of the following equation: […]
where F is the fluorescence intensity at the x concentration of an min inhibitor. Fmax and Fmin are the maximum and minimum fluorescence of the DNA sample, respectively. P is a slope parameter.

[2] = target: T1, E. coli DNA gyrase; test: DNA gyrase mediated DNA cleavage assay; format: biochemical; settings: pBR322
Experimental: 250 ng of supercoiled pBR322 plasmid were incubated with 50 nM of E. coli DNA gyrase in reactions containing 35 mM Tris-HCl, 24 mM KCl, 4 mM MgCl2, 2 mM DTT, 0.1 mg/mL BSA, 6.5% glycerol, and 1.75 mM ATP, in presence of 200 µM of compounds, at 37° C. for 15 min. Then, 0.2% (w/v) of SDS and 0.1 mg/mL proteinase K were added, and samples were incubated at 37° C. for 1 h. […] Samples were examined by electrophoresis in 1% w/v agarose gel containing 0.5 µg/mL ethidium bromide and photographed under UV light.

[3] = target: T1, E. coli DNA gyrase; test: Agarose gel-based DNA gyrase inhibition assay; format: biochemical
Experimental: 100 ng of DNA gyrase was used to supercoil the rx pAB1 in the presence of different concentrations of a gyrase inhibitor. […] Samples were analyzed by electrophoresis in 1% w/v agarose gels followed by ethidium bromide staining and photographed under UV light.

[4] = system: B. subtilis (ATCC 6633); test: Minimum inhibitory concentration, broth microdilution; settings: for MIC: Bacillus subtilis
[5] = target: human DNA topoisomerase IIα (Homo sapiens (Human), UniProt P11388); test: Agarose gel-based inhibition assay against human DNA topoisomerase IIα; format: biochemical; settings: for inhibition of human DNA topoisomerase IIα: gallates at 100 µM
[6] = target: human DNA topoisomerase 2α (Homo sapiens (Human), UniProt P11388); test: Human DNA topoisomerase 2α-mediated DNA cleavage assay; format: biochemical; settings: pBR322
[7] = target: T1, E. coli DNA gyrase; test: biochemical; format: biochemical
[8] = target: Mtb DNA gyrase (Mycobacterium tuberculosis (strain ATCC 25618 / H37Rv), UniProt P9WG45+P9WG47); test: Mtb DNA gyrase inhibition assay (gel-based); format: biochemical; settings: for IC50: Table 5, Mtb gyrase, read-out: IC50 (µM) Mtb
How it was run: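 Supercoiling by 100 ng Mtb gyrase of 400 ng relaxed pAB1 in buffer with 1.75 mM ATP, pH 7.5, across inhibitor concentrations. Reactions ran 15 min at 37° C, stopped with SDS/EDTA. Products resolved on 1% agarose, ethidium bromide-stained; IC50 determined from gels.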

[9] = system: S. aureus (ATCC 14775); test: Minimum inhibitory concentration, broth microdilution; settings: for MIC: Staphylococcus aureus
[10] = in vitro; settings: mouse
[11] = system: J774; settings: 200 µM
[12] = in vitro; settings: human
[13] = system: MRSA; test: Minimum inhibitory concentration, broth microdilution; settings: for MIC: Staphylococcus aureus
[14] = system: Mtb; test: Mtb whole cell assay (% inhibition, MIC); format: cell-based, Mycobacterium tuberculosis; settings: for inhibition at 20 µM: Mycobacterium tuberculosis, Table 5 (same values in Table 6 at 20 µM)
[15] = target: T2, E. coli DNA topoisomerase IV (Escherichia coli (strain K12), UniProt P0AFI2+P20083); test: E. coli DNA topoisomerase IV relaxation assay (gel-based); format: biochemical
Experimental: (§1) Relaxation assays by E. coli DNA topoisomerase IV and the ATPase assays were performed. […] Lane 1 is supercoiled plasmid pAB1. […] The supercoiled, fluorescently-labeled plasmid pAB1_FL905 was used.

[16] = system: E. coli (ATCC 25922); test: Minimum inhibitory concentration, broth microdilution; settings: for MIC: Escherichia coli
[17] = target: T2, E. coli DNA topoisomerase IV; test: ATP hydrolysis activity of E. coli DNA topoisomerase IV; format: biochemical; settings: 100 µM
Experimental: as §1

[18] = target: T2, E. coli DNA topoisomerase IV; test: SDFQ-based DNA relaxation assay with E. coli DNA topoisomerase IV; format: biochemical
Experimental: as §1

[19] = target: E. coli DNA topoisomerase I (Escherichia coli (strain K12), UniProt P06612); test: E. coli DNA topoisomerase I inhibition; format: biochemical; settings: gallates at 100 µM
[20] = target: E. coli topoisomerase IV (Escherichia coli (strain K12), UniProt P0AFI2+P20083); test: E. coli topoisomerase IV decatenation; format: biochemical; settings: read-out: IC50 against E. coli topoisomerase IV
[21] = target: T1, E. coli DNA gyrase; test: E. coli DNA gyrase ATPase assay; format: biochemical
Experimental: E. coli DNA gyrase ATPase assays were performed in 60 µL of 1 ×gyrase ATPase buffer (10 mM Tris.HCl (pH 7.5), 0.2 mM EDTA, 1 mM magnesium chloride, 1 mM DTT, and 2% (w/v) glycerol) containing 50 nM E. coli DNA gyrase, 200 ng rx pAB1, 0.8 mM Phosphoenol pyruvate, 1.2 units of Pyruvate kinase, 1.7 units of lactate dehydrogenase, and 0.4 mM of NADH at 37° C. After the reaction mixtures are incubated on ice for 5 minutes, 2 mM of ATP is added to initiate the reaction. Absorbance at OD340nm is monitored for up to 30 minutes at 37° C. in a spectrophotometer.

[22] = system: E. coli imp; test: microbe, parasite or virus in culture; settings: Escherichia coli, read-out: MIC E. coli imp BAS3023
Experimental: (§2) Antibacterial minimum inhibitory concentrations (MICs) were obtained from three independent experiments using broth microdilution methods in 96-well plates according to Clinical and Laboratory Standards Institute guidelines. Cells were culture from singles colonies in MHIIB medium for 24 h at 37° C. in agitation (200 RPM). The cultures were then diluted using the same media to reach an OD600 of 0.1. Then, 50 µL of the diluted cultures were added to the plates holding 50 µL of serially diluted compounds in MHIIB. The plates were incubated at 37° C. for 20 h. The starting inoculum was fixated to 10^5 colony-forming units per ml.

[23] = target: human DNA topoisomerase I (Homo sapiens (Human), UniProt P11387); test: Human DNA topoisomerase I inhibition; format: biochemical; settings: gallates at 100 µM
[24] = system: E. coli imp
Experimental: as §2

[25] = SDFQ-based, three independent experiments, read-out: IC50 against E. coli DNA gyrase
[26] = ATCC6633, read-out: Minimum Inhibitory Concentration B.subtilis
[27] = IC50 against E. coli DNA gyrase
[28] = ATCC14775, read-out: MIC (µM) SA
[29] = ATCC14775, read-out: Minimum Inhibitory Concentration S.aureus
[30] = MRSA, read-out: Minimum Inhibitory Concentration S.aureus MRSA
[31] = IC50 (µM) EC, Table 5, E. coli gyrase

Chain of human DNA topoisomerase IIα (P11388 whole entry): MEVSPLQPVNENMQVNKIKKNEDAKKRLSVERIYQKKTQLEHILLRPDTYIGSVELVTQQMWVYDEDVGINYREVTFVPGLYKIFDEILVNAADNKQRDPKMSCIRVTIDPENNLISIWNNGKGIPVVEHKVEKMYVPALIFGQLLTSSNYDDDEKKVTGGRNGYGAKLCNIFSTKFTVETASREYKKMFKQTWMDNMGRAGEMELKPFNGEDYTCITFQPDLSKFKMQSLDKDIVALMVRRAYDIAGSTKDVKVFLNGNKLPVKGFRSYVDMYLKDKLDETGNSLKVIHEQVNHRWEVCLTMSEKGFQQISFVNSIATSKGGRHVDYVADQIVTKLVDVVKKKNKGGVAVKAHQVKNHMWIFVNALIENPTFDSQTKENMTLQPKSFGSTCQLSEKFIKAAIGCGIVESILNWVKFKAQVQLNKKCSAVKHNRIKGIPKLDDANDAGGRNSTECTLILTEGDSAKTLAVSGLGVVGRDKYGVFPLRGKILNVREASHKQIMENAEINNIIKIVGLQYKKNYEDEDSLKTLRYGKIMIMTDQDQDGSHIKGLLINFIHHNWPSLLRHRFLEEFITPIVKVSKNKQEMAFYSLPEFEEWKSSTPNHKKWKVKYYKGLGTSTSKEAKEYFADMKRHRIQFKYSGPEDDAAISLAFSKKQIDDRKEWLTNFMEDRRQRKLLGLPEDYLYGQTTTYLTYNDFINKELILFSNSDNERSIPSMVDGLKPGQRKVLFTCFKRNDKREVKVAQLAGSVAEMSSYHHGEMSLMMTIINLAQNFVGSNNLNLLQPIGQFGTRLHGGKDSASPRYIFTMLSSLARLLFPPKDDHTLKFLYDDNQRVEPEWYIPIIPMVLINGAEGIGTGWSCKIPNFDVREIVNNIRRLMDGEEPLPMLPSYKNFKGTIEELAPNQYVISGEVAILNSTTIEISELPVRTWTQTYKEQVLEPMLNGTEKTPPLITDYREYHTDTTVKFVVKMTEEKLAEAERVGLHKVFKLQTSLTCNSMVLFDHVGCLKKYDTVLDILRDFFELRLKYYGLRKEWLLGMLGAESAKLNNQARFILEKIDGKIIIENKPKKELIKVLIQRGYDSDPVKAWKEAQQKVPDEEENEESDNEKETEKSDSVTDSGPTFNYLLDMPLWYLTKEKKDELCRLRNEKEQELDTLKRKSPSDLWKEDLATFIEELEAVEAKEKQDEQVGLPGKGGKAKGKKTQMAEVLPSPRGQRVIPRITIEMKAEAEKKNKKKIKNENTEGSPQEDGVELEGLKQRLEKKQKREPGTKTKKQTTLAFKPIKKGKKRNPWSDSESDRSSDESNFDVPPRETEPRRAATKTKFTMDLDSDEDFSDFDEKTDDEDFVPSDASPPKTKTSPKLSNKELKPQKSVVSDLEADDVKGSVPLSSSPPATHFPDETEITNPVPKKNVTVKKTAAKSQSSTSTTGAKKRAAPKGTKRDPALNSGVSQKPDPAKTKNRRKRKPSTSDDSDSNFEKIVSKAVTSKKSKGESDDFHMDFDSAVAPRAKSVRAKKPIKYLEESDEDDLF
T2 sequence (P0AFI2 whole entry, looked up): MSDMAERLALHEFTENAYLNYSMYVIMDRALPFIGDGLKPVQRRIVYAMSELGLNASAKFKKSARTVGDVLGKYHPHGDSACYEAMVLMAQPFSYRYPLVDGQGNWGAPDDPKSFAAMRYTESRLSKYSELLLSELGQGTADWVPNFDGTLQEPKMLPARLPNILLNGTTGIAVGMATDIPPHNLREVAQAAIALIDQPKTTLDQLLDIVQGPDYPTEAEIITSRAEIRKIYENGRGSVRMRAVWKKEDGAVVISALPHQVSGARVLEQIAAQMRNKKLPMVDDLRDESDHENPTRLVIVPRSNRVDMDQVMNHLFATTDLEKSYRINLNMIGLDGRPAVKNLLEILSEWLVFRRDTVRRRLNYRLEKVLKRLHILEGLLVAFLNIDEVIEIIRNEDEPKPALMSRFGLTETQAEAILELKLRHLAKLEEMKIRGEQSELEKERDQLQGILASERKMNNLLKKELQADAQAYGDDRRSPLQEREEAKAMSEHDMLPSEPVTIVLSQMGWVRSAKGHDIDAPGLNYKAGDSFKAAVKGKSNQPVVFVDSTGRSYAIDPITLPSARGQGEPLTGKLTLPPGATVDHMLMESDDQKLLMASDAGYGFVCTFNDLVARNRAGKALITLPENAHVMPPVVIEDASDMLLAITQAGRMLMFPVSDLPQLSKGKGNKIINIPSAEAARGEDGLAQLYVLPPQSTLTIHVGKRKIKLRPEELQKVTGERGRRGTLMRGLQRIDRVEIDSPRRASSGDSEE
T2 sequence (P20083 whole entry, looked up): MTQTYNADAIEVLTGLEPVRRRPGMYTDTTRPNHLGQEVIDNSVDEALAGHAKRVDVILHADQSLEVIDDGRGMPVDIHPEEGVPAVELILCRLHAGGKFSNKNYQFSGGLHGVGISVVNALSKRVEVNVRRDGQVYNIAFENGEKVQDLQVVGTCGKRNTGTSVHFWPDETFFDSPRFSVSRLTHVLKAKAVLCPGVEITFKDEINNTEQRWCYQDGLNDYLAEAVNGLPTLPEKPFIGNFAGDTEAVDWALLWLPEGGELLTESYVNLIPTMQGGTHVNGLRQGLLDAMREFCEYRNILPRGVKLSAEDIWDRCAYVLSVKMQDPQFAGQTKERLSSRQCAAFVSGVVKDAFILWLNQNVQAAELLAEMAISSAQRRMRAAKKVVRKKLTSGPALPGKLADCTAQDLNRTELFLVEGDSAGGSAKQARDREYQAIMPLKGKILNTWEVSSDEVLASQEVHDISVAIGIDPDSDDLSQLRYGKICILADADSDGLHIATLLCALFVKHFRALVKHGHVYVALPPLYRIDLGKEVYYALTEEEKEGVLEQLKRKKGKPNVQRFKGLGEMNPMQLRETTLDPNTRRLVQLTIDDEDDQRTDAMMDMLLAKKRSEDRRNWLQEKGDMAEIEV
Chain of E. coli DNA topoisomerase I (P06612 whole entry, looked up): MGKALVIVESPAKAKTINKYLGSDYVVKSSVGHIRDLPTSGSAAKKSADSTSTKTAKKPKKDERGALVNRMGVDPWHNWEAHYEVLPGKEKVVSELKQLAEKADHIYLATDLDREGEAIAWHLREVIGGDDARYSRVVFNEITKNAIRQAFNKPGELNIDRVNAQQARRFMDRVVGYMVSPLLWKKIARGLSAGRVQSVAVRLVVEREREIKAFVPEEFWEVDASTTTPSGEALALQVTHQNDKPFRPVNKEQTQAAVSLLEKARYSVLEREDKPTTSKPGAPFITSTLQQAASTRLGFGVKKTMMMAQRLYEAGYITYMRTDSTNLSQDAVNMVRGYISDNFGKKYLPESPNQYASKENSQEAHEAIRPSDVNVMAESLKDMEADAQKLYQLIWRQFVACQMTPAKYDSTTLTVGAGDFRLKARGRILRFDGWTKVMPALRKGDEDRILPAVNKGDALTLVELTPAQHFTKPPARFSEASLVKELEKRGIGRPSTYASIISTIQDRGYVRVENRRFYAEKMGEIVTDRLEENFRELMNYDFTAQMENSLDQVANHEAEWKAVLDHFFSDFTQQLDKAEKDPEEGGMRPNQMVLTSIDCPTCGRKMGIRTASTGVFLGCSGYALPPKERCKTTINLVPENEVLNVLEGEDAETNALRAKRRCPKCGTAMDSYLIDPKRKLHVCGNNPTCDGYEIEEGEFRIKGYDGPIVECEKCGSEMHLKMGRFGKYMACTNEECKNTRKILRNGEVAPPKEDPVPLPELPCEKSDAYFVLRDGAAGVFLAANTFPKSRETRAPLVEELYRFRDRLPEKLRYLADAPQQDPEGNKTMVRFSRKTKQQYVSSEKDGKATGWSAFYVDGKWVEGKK
Chain of human DNA topoisomerase I (P11387 whole entry): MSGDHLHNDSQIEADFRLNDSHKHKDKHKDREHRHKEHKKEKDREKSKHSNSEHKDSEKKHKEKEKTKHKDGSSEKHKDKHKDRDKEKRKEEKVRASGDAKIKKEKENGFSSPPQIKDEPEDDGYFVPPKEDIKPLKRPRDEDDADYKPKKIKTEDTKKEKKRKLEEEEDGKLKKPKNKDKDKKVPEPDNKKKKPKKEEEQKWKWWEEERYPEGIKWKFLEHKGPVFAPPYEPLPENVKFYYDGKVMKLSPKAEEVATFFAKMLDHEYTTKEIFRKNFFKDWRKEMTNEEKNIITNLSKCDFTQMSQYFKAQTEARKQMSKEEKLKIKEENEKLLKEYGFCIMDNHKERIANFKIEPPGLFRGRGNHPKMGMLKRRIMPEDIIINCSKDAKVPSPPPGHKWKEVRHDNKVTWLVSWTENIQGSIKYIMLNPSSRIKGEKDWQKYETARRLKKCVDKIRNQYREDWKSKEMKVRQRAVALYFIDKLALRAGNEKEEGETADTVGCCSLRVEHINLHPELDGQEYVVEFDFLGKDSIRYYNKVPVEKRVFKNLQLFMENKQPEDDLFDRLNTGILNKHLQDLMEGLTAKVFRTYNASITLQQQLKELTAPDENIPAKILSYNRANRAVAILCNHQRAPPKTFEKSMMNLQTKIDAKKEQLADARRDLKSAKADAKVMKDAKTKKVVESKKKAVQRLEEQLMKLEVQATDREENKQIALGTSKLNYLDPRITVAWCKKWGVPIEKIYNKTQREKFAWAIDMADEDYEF
Chain of human DNA topoisomerase 2α (P11388 whole entry): as the sequence (P11388 whole entry) above
Chain of E. coli topoisomerase IV (P0AFI2 whole entry, looked up): as the sequence (P0AFI2 whole entry, looked up) above
Chain of E. coli topoisomerase IV (P20083 whole entry, looked up): as the sequence (P20083 whole entry, looked up) above

| Compound | IC50 [1, 25] | E. coli DNA gyrase-mediated DNA breaks and nicking [2] | MIC [4, 26] | inhibition of human DNA topoisomerase IIα [5] | human topoisomerase 2α-mediated DNA nicks and double-stranded breaks [6] | IC50 [7, 27] | inhibition of Mtb DNA gyrase activities [8] | IC50 [8] | MIC [9, 28] | MIC [9, 29] | inhibition of E. coli DNA gyrase activities ([3]; 50 µM of compounds) | IC50 [10] | cytotoxicity J774 [11] | IC50 [5] | IC50 [12] | MIC ([13]; MRSA, read-out: MIC (µM) MRSA) | MIC [13, 30] | activity against Mtb [14] | inhibition at 20 µM [14] | IC50 [7, 31] | other results |
| --- | --- | --- | --- | --- | --- | --- | --- | --- | --- | --- | --- | --- | --- | --- | --- | --- | --- | --- | --- | --- | --- |
| CC(OC(=O)c1cc(O)c2ccccc2c1O)C(=O)Nc1ccc(C(N)=O)cc1 (stereo not drawn) [Compound 40, 1-[(4-carbamoylphenyl)carbamoyl]ethyl 1,4-dihydroxynaphthalene-2-carboxylate] | 47.6 ± 3.7 µM | causes DNA gyrase-mediated double stranded DNA breaks and DNA nicking; also recorded: causes gyrase-mediated DNA double-stranded breaks and single-stranded nicks | 100 µM (≈ 39.4 µg/mL) | does not inhibit | does not cause | 50 µM | – | – | – | – | – | – | – | – | – | – | – | – | – | – | inhibition of E. coli DNA gyrase activities ([3]; 200 µM of compounds): completely inhibited; anti Bacillu subtilis activities [4]: 39 µg/mL; IC50 ([7]; IC50 (50-200 µM), bin of Table 2): 50 to 200 µM |
| Cc1c(CCC(=O)O)c(=O)oc2c(C)c3occ(-c4ccc(-c5ccccc5)cc4)c3cc12 [Compound 119] | – | – | – | – | – | – | potent Mtb gyrase inhibitors | 16 µM | 0.8 µM (≈ 0.351 µg/mL) | 0.78 µM (≈ 0.342 µg/mL) | completely inhibited | > 200 µM | no cytotoxicity | 133 µM | > 200 µM | 0.8 µM | 0.78 µM | most active | 70.4% | 7.7 µM | – |
| Cc1c(CCC(=O)O)c(=O)oc2c(C)c3occ(-c4ccc5ccccc5c4)c3cc12 [Compound 124] | – | – | – | – | – | – | potent Mtb gyrase inhibitors | 3 µM | 1.6 µM (≈ 0.66 µg/mL) | 1.56 µM (≈ 0.643 µg/mL) | completely inhibited | > 200 µM | no cytotoxicity | 117 µM | > 200 µM | 1.6 µM | 1.56 µM | most active | 80.4% | 5.5 µM | – |
| N=C(N)Nc1nc(-c2ccccc2)c2cc(Cl)ccc2n1 [Compound 154, N-(6-chloro-4-phenylquinazolin-2-yl)guanidine] | 3.1 ± 0.7 µM | causes the gyrase-mediated DNA double-stranded breaks and single-stranded nicks | 25 µM (≈ 7.44 µg/mL) | – | causes the human topoisomerase 2a-mediated DNA nicks and double-stranded breaks | 7 µM | – | – | – | 25 µM (≈ 7.44 µg/mL) | completely inhibited | – | – | ~50 µM | – | – | 25 µM | – | – | – | inhibition of E. coli DNA topoisomerase IV [15]: inhibits; MIC ([16]; ATCC25922, read-out: Minimum Inhibitory Concentration E. coli, Tables 3a-3c): 50 µM (≈ 14.9 µg/mL) |
| O=C(O)c1cc(O)c(O)c(OC(=O)c2cc(O)c(O)c(O)c2)c1 [Digallic acid, digallic acid] | – | not bacterial DNA gyrase poisons | – | do not inhibit; also recorded: did not strongly inhibit | – | – | – | – | – | – | – | – | – | – | – | – | – | – | – | – | IC50 ([1]; Table 8, read-out: IC50 Gyrase SDFQ): 1.9 µM; inhibition of the ATPase activities of bacterial DNA topoisomerase IV [17]: inhibit the ATPase activities; IC50 [18]: 7.3 µM; inhibition of E. coli DNA topoisomerase I [19]: do not inhibit; also recorded: did not strongly inhibit; MIC ([9]; ATCC14775, read-out: MIC S. aureus ATCC 14775): 64 µg/mL and 200 µM; IC50 ([3]; gel-based, read-out: IC50 against E. coli DNA gyrase): 2 µM; MIC ([4]; ATCC6633, read-out: MIC B. subtilis ATCC 6633): > 64 µg/mL and > 200 µM; IC50 ([15]; IC50 Topoisomerase IV Gel-based, Table 8): 8 µM; IC50 ([15]; IC50 against E. coli DNA topoisomerase IV, relaxation): ~8 µM; IC50 [20]: ~4 µM; inhibition of the ATPase activities of E. coli DNA gyrase ([21]; AB-MECA and gallates at 100 µM): competitive inhibitor; Ki ([21]; ATPase, ATP competitive, read-out: Ki): 0.347 µM; MIC [22]: > 200 µM; MIC ([13]; ATCC33591 / MRSA, read-out: MIC MRSA ATCC 33591): 200 µM; MIC ([13]; ATCCBAA44 / MRSA, read-out: MIC S. aureus (MRSA) ATCC BAA44): 64 µg/mL; MIC ([16]; ATCC25922, read-out: MIC E coli ATCC 25922, Table 9): > 200 µM; inhibition of human DNA topoisomerase I [23]: do not inhibit; also recorded: did not strongly inhibit |
| biphenyl gallate | – | – | – | – | – | – | – | – | – | – | – | – | – | – | – | – | – | – | – | – | MIC S. aureus ATCC 14775 [9]: 16 µg/mL and 50 µM; MIC B. subtilis ATCC 6633 [4]: 16 µg/mL and 50-100 µM; MIC E. coli imp ([24]; Table 7): 36.43 µg/mL; MIC E. coli imp BAS3023 ([24]; Table 9): 200 µM; MIC MRSA ATCC 33591 [13]: 50 µM; MIC S. aureus (MRSA) ATCC BAA44 [13]: 16 µg/mL; MIC E coli ATCC 25922 [16]: >200 µM; MIC E. coli ATCC 25922 [16]: 517.29 µg/mL |
